Measurements from US8383647B2, “Quinoline derivative” (Takeda Pharmaceutical Company Limited, priority 2009, dated 2013).
Where a name gives a salt, the structure may show the parent alone.

Key:
[1] = molecular target: human SLC-1 (Homo sapiens, UniProt Q99705); assay: MCH receptor antagonistic activity (inhibitory activity, Experimental Example 1); format: biochemical
[2] = molecular target: rat SLC-1 (Rattus norvegicus, UniProt P97639); assay: as above; format: biochemical
rat SLC-1, sequence (P97639 whole entry): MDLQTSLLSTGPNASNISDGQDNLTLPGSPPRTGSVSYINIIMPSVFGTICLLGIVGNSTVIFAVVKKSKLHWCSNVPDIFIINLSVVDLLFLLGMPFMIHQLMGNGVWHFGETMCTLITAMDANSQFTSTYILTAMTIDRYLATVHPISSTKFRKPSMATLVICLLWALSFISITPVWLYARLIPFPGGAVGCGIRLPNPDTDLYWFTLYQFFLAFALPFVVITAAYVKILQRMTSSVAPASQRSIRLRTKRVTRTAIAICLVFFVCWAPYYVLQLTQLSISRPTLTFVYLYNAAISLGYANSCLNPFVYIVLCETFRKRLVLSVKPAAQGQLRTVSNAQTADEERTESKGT

human SLC-1, sequence (Q99705 whole entry): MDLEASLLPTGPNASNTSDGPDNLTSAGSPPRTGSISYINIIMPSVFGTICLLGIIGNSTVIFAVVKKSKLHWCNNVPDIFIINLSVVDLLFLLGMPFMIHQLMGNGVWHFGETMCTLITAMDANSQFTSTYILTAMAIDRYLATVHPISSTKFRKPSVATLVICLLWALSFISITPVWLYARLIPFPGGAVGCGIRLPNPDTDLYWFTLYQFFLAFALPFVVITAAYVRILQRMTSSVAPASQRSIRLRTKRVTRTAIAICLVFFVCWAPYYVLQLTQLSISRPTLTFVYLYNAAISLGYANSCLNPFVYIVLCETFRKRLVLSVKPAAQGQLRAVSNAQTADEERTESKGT

| IC50 [1] | IC50 [2] | melting point | Compound |
| --- | --- | --- | --- |
| 4.1 nM | 5.3 nM |  | Cc1c(NC(=O)c2ccc(OC[C@H]3CCCO3)cc2)ccc2cc(CN[C@H]3CC[C@](C)(O)CC3)cnc12 [Example 51, N-(3-{[(trans-4-hydroxy-4-methylcyclohexyl)amino]methyl}-8-methylquinolin-7-yl)-4-[(2R)-tetrahydrofuran-2-ylmethoxy]benzamide] |
| 1.5 nM | 1.7 nM | 142 to 143 °C | Cc1c(NC(=O)c2ccc(OC[C@@H]3CCCO3)cc2)ccc2cc(CNCC(C)C)cnc12 [Example 38, N-(8-methyl-3-{[(2-methylpropyl)amino]methyl}quinolin-7-yl)-4-[(2S)-tetrahydrofuran-2-ylmethoxy]benzamide] |
|  |  | 163 to 164 °C | Cc1c(NC(=O)c2ccc(OC[C@H]3CCCO3)cc2)ccc2cc(CN[C@H]3CC[C@@](C)(O)CC3)cnc12 [Example 53, N-(3-{[(cis-4-hydroxy-4-methylcyclohexyl)amino]methyl}-8-methylquinolin-7-yl)-4-[(2R)-tetrahydrofuran-2-ylmethoxy]benzamide] |
| 3.7 nM | 4.5 nM | 122 to 123 °C | Cc1c(NC(=O)c2ccc(OCC3CCOC3)cc2)ccc2cc(CNCC3CCOCC3)cnc12 (stereo not shown) [Example 63, N-(8-methyl-3-{[(tetrahydro-2H-pyran-4-ylmethyl)amino]methyl}quinolin-7-yl)-4-(tetrahydrofuran-3-ylmethoxy)benzamide] |
| 6.4 nM | 9.1 nM | 122 to 123 °C | CC[C@H](C)NCc1cnc2c(C)c(NC(=O)c3ccc(OC[C@@H]4CCCO4)cc3)ccc2c1 [Example 56, N-[8-methyl-3-({[(1S)-1-methylpropyl]amino}methyl)quinolin-7-yl]-4-[(2S)-tetrahydrofuran-2-ylmethoxy]benzamide] |
| 3.4 nM | 3.5 nM | 110 to 111 °C | Cc1c(NC(=O)c2ccc(OC[C@H]3CCCO3)cc2)ccc2cc(CNCC(C)(C)C)cnc12 [Example 25, N-(3-{[(2,2-dimethylpropyl)amino]methyl}-8-methylquinolin-7-yl)-4-[(2R)-tetrahydrofuran-2-ylmethoxy]benzamide] |
|  |  | 130 to 131 °C | Cc1c(NC(=O)c2ccc(OCC3CCOC3)cc2)ccc2cc(CNCC(C)C)cnc12 (stereo not shown) [Example 60, N-(8-methyl-3-{[(2-methylpropyl)amino]methyl}quinolin-7-yl)-4-(tetrahydrofuran-3-ylmethoxy)benzamide] |
| 3 nM | 4.1 nM | 156 to 158 °C | Cc1c(NC(=O)c2ccc(OC[C@@H]3CCCO3)cc2)ccc2cc(CNCC3CC3)cnc12 [Example 37, N-(3-{[(cyclopropylmethyl)amino]methyl}-8-methylquinolin-7-yl)-4-[(2S)-tetrahydrofuran-2-ylmethoxy]benzamide] |
|  |  | 138 °C | Cc1c(NC(=O)c2ccc(OCC3CCCO3)cc2)ccc2cc(CNCC(C)(C)O)cnc12 (stereo not shown) [Example 1, N-(3-{[(2-hydroxy-2-methylpropyl)amino]methyl}-8-methylquinolin-7-yl)-4-(tetrahydrofuran-2-ylmethoxy)benzamide] |
| 5.5 nM | 6.5 nM | 117 to 119 °C | Cc1c(NC(=O)c2ccc(OC[C@@H]3CCCO3)cc2)ccc2cc(CNCC3(C)COC3)cnc12 [Example 34, N-[8-methyl-3-({[(3-methyloxetan-3-yl)methyl]amino}methyl)quinolin-7-yl]-4-[(2S)-tetrahydrofuran-2-ylmethoxy]benzamide] |
|  |  | 98 to 101 °C | Cc1c(NC(=O)c2ccc(OCC3CCOC3)cc2)ccc2cc(CN[C@H]3CC[C@](C)(O)CC3)cnc12 (stereo partly drawn) [Example 64, N-(3-{[(trans-4-hydroxy-4-methylcyclohexyl)amino]methyl}-8-methylquinolin-7-yl)-4-(tetrahydrofuran-3-ylmethoxy)benzamide] |
|  |  | 132 °C | Cc1c(NC(=O)c2ccc(OCC3CCOC3)cc2)ccc2cc(CNCC(C)C)cnc12 (stereo not shown) [Example 59, N-(8-methyl-3-{[(2-methylpropyl)amino]methyl}quinolin-7-yl)-4-(tetrahydrofuran-3-ylmethoxy)benzamide] |
|  |  | 197 °C | Cc1c(NC(=O)c2ccc(OCC3CCCO3)cc2)ccc2cc(CN[C@H]3CCCC[C@@H]3O)cnc12 (stereo partly drawn) [Example 3, N-[3-({[(1S,2S)-2-hydroxycyclohexyl]amino}methyl)-8-methylquinolin-7-yl]-4-(tetrahydrofuran-2-ylmethoxy)benzamide] |
| 8.4 nM | 11 nM |  | COC(C)(C)CNCc1cnc2c(C)c(NC(=O)c3ccc(OC[C@@H]4CCCO4)cc3)ccc2c1 [Example 30, N-(3-{[(2-methoxy-2-methylpropyl)amino]methyl}-8-methylquinolin-7-yl)-4-[(2S)-tetrahydrofuran-2-ylmethoxy]benzamide dihydrochloride] |
|  |  | 137 °C | COC(C)(C)CNCc1cnc2c(C)c(NC(=O)c3ccc(OCC4CCOC4)cc3)ccc2c1 (stereo not shown) [Example 65, N-(3-{[(2-methoxy-2-methylpropyl)amino]methyl}-8-methylquinolin-7-yl)-4-(tetrahydrofuran-3-ylmethoxy)benzamide] |
|  |  | 242 to 244 °C | Cc1c(NC(=O)c2ccc(OC[C@@H]3CCCO3)cc2)ccc2cc(CNCC3(O)CCCCC3)cnc12 (as salt: hydrochloride) [Example 41, N-[3-({[(1-hydroxycyclohexyl)methyl]amino}methyl)-8-methylquinolin-7-yl]-4-[(2S)-tetrahydrofuran-2-ylmethoxy]benzamide dihydrochloride] |
| 2.2 nM | 2.1 nM |  | Cc1c(NC(=O)c2ccc(OCC3CCOC3)cc2)ccc2cc(CNCC(C)C)cnc12 (single isomer, unassigned) [Example 61, N-(8-methyl-3-{[(2-methylpropyl)amino]methyl}quinolin-7-yl)-4-(tetrahydrofuran-3-ylmethoxy)benzamide] |
|  |  | 106 °C | Cc1c(NC(=O)c2ccc(OCC3CCOC3)cc2)ccc2cc(CNC(C)C)cnc12 (stereo not shown) [Example 7, N-(8-methyl-3-{[(1-methylethyl)amino]methyl}quinolin-7-yl)-4-(tetrahydrofuran-3-ylmethoxy)benzamide] |
|  |  | 235 to 237 °C | COC(C)(C)CNCc1cnc2c(C)c(NC(=O)c3ccc(OC[C@@H]4CCCO4)cc3)ccc2c1 (as salt: hydrochloride) [Example 30, N-(3-{[(2-methoxy-2-methylpropyl)amino]methyl}-8-methylquinolin-7-yl)-4-[(2S)-tetrahydrofuran-2-ylmethoxy]benzamide dihydrochloride] |
|  |  | 160 to 162 °C | Cc1c(NC(=O)c2ccc(OCC3CCOC3)cc2)ccc2cc(CN3CCC(C)(O)CC3)cnc12 (stereo not shown) [Example 66, N-{3-[(4-hydroxy-4-methylpiperidin-1-yl)methyl]-8-methylquinolin-7-yl}-4-(tetrahydrofuran-3-ylmethoxy)benzamide] |
| 1.5 nM | 1.6 nM |  | Cc1c(NC(=O)c2ccc(OC[C@@H]3CCCO3)cc2)ccc2cc(CNCC3(O)CCCCC3)cnc12 [Example 41, N-[3-({[(1-hydroxycyclohexyl)methyl]amino}methyl)-8-methylquinolin-7-yl]-4-[(2S)-tetrahydrofuran-2-ylmethoxy]benzamide dihydrochloride] |
